# Test results taken from patent publication US20070049593A1 (priority 2004, published 2007).
# Structures can show the parent of a compound that is named as a salt.
# Target: T1, HCV polymerase (Hepatitis C virus genotype 1b, UniProt P26663)
# T1 construct: a region encoding NS5B (J Virol 1991 March, 65(3), 1105-13, 544 amino acids after deletion of 47 amino acids on the C-terminal); 6xHis (C); made in house; host or cells: Escherichia coli
# Test: biochemical
# Set-up: species or system HCV BK strain
# In short: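 His-tagged NS5B (BK strain, 47-aa C-terminal deletion, E. coli-expressed) at 0.5 μg/ml copied 5 μg/ml run-off RNA bearing the HCV 3′ UTR with 2 μM UTP plus [3H]UTP, 50 μM ATP/GTP, in pH 7.5 Tris with 5 mM MgCl2, 25 °C, 90 min. TCA-precipitated RNA was counted and IC50 calculated.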
# T1 sequence (P26663 2420-2963): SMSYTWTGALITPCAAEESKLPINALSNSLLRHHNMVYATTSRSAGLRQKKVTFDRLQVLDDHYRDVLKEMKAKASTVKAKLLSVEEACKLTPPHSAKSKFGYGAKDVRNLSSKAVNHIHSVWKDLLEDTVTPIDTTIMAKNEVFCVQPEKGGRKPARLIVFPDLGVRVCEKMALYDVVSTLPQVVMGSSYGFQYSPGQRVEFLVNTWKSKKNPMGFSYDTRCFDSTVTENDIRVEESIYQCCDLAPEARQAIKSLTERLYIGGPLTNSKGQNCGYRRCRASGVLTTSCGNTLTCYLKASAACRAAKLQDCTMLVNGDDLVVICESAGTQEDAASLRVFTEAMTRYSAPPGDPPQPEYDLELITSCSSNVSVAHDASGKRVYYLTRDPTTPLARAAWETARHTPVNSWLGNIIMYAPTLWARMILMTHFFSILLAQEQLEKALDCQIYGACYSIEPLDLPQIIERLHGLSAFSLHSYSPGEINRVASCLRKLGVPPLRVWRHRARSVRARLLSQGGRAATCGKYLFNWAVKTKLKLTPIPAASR
row,Compound,IC50 [nM]
1,"CC(C)N(CCN1CCn2c(c(C3CCCCC3)c3ccc(C(=O)O)cc32)-c2ccccc21)C(C)C [Example 1-186, 13-cyclohexyl-5-(2-diisopropylaminoethyl)-6,7-dihydro-5H-benzo[5,6][1,4]diazepino[7,1-a]indole-10-carboxylic acid dihydrochloride]",< 100
2,"CC1CC(C)CN(C(=O)CN2CCn3c(c(C4CCCCC4)c4ccc(C(=O)O)cc43)-c3ccccc32)C1 (stereo not drawn) [Example 1-187, 13-cyclohexyl-5-[2-(3,5-dimethylpiperidin-1-yl)-2-oxoethyl]-6,7-dihydro-5H-benzo[5,6][1,4]diazepino[7,1-a]indole-10-carboxylic acid monohydrochloride]",< 100
3,"CCC1CCCN(C(=O)CN2CCn3c(c(C4CCCCC4)c4ccc(C(=O)O)cc43)-c3ccccc32)C1 (stereo not drawn) [Example 1-188, 13-cyclohexyl-5-[2-(3-ethylpiperidin-1-yl)-2-oxoethyl]-6,7-dihydro-5H-benzo[5,6][1,4]diazepino[7,1-a]indole-10-carboxylic acid monohydrochloride]",< 100
4,"CC1CC(C)CN(CCN2CCn3c(c(C4CCCCC4)c4ccc(C(=O)O)cc43)-c3ccccc32)C1 (stereo not drawn) [Example 1-189, 13-cyclohexyl-5-[2-(3,5-dimethylpiperidin-1-yl)ethyl]-6,7-dihydro-5H-benzo[5,6][1,4]diazepino[7,1-a]indole-10-carboxylic acid dihydrochloride]",< 100
5,"CCC1CCCN(CCN2CCn3c(c(C4CCCCC4)c4ccc(C(=O)O)cc43)-c3ccccc32)C1 (stereo not drawn) [Example 1-190, 13-cyclohexyl-5-[2-(3-ethylpiperidin-1-yl)ethyl]-6,7-dihydro-5H-benzo[5,6][1,4]diazepino[7,1-a]indole-10-carboxylic acid dihydrochloride]",< 100
6,"Cc1ccc2c(c1)-c1c(C3CCCCC3)c3ccc(C(=O)O)cc3n1CCN2CCN1CCCCC1 [Example 1-191, 13-cyclohexyl-2-methyl-5-[2-(piperidin-1-yl)ethyl]-6,7-dihydro-5H-benzo[5,6][1,4]diazepino[7,1-a]indole-10-carboxylic acid dihydrochloride]",100 to 1000
7,"CCCC1CCN(CCN2CCn3c(c(C4CCCCC4)c4ccc(C(=O)O)cc43)-c3ccccc32)CC1 [Example 1-192, 13-cyclohexyl-5-[2-(4-propylpiperidin-1-yl)ethyl]-6,7-dihydro-5H-benzo[5,6][1,4]diazepino[7,1-a]indole-10-carboxylic acid dihydrochloride]",< 100
8,"C[C@@H]1CCC[C@H](C)N1CCN1CCn2c(c(C3CCCCC3)c3ccc(C(=O)O)cc32)-c2ccccc21 [Example 1-193, 13-cyclohexyl-5-[2-((2S,6R)-2,6-dimethylpiperidin-1-yl)ethyl]-6,7-dihydro-5H-benzo[5,6][1,4]diazepino[7,1-a]indole-10-carboxylic acid dihydrochloride]",< 100
9,"O=C(O)c1ccc2c(C3CCCCC3)c3n(c2c1)CCN(CCCN1CCCCCC1)c1ccccc1-3 [Example 1-194, 5-[3-(azepan-1-yl)propyl]-13-cyclohexyl-6,7-dihydro-5H-benzo[5,6][1,4]diazepino[7,1-a]indole-10-carboxylic acid dihydrochloride]",< 100
10,"O=C(CN1CCn2c(c(C3CCCCC3)c3ccc(C(=O)O)cc32)-c2ccccc21)NC12CC3CC(CC(C3)C1)C2 [Example 1-195, 5-(adamantan-1-ylcarbamoylmethyl)-13-cyclohexyl-6,7-dihydro-5H-benzo[5,6][1,4]diazepino[7,1-a]indole-10-carboxylic acid monohydrochloride]",< 100
11,"O=C(O)c1ccc2c(C3CCCCC3)c3n(c2c1)CCN(CCNC12CC4CC(CC(C4)C1)C2)c1ccccc1-3 [Example 1-196, 5-[2-(adamantan-1-ylamino)ethyl]-13-cyclohexyl-6,7-dihydro-5H-benzo[5,6][1,4]diazepino[7,1-a]indole-10-carboxylic acid dihydrochloride]",< 100
12,"COCC1CCN(CCN2CCn3c(c(C4CCCCC4)c4ccc(C(=O)O)cc43)-c3ccccc32)CC1 [Example 1-197, 13-cyclohexyl-5-[2-(4-methoxymethylpiperidin-1-yl)ethyl]-6,7-dihydro-5H-benzo[5,6][1,4]diazepino[7,1-a]indole-10-carboxylic acid dihydrochloride]",< 100
13,"CCCN(C)CCN1CCn2c(c(C3CCCCC3)c3ccc(C(=O)O)cc32)-c2ccccc21 [Example 1-198, 13-cyclohexyl-5-[2-(N-methyl-N-propylamino)ethyl]-6,7-dihydro-5H-benzo[5,6][1,4]diazepino[7,1-a]indole-10-carboxylic acid dihydrochloride]",< 100
14,"CC1(C)CCN(CCN2CCn3c(c(C4CCCCC4)c4ccc(C(=O)O)cc43)-c3ccccc32)CC1 [Example 1-199, 13-cyclohexyl-5-[2-(4,4-dimethylpiperidin-1-yl)ethyl]-6,7-dihydro-5H-benzo[5,6][1,4]diazepino[7,1-a]indole-10-carboxylic acid dihydrochloride]",< 100
15,"COCC1CCCN(CCN2CCn3c(c(C4CCCCC4)c4ccc(C(=O)O)cc43)-c3ccccc32)C1 (stereo not drawn) [Example 1-200, 13-cyclohexyl-5-[2-(3-methoxymethylpiperidin-1-yl)ethyl]-6,7-dihydro-5H-benzo[5,6][1,4]diazepino[7,1-a]indole-10-carboxylic acid dihydrochloride]",< 100
16,"CN1CCCC(CCN2CCn3c(c(C4CCCCC4)c4ccc(C(=O)O)cc43)-c3ccccc32)C1 (stereo not drawn) [Example 1-201, 13-cyclohexyl-5-[2-(1-methylpiperidin-3-yl)ethyl]-6,7-dihydro-5H-benzo[5,6][1,4]diazepino[7,1-a]indole-10-carboxylic acid dihydrochloride]",< 100
17,"CC(C)N1CCCC(CCN2CCn3c(c(C4CCCCC4)c4ccc(C(=O)O)cc43)-c3ccccc32)C1 (stereo not drawn) [Example 1-202, 13-cyclohexyl-5-[2-(1-isopropylpiperidin-3-yl)ethyl]-6,7-dihydro-5H-benzo[5,6][1,4]diazepino[7,1-a]indole-10-carboxylic acid dihydrochloride]",< 100
18,"O=C(O)c1ccc2c(C3CCCCC3)c3n(c2c1)CC(=O)N(CC(=O)N1CCCCC1)c1ccccc1-3 [Example 1-203, 13-cyclohexyl-6-oxo-5-[2-oxo-2-(piperidin-1-yl)ethyl]-6,7-dihydro-5H-benzo[5,6][1,4]diazepino[7,1-a]indole-10-carboxylic acid]",< 100
19,"CCN1CCN(C(=O)CN2C(=O)Cn3c(c(C4CCCCC4)c4ccc(C(=O)O)cc43)-c3ccccc32)CC1 [Example 1-204, 13-cyclohexyl-5-[2-(4-ethylpiperazin-1-yl)-2-oxoethyl]-6-oxo-6,7-dihydro-5H-benzo[5,6][1,4]diazepino[7,1-a]indole-10-carboxylic acid monohydrochloride]",< 100
20,"O=C(O)c1ccc2c(C3CCCCC3)c3n(c2c1)CCN(CCN1CC=CCC1)c1ccccc1-3 [Example 1-205, 13-cyclohexyl-5-[2-(3,6-dihydro-2H-pyridin-1-yl)ethyl]-6,7-dihydro-5H-benzo[5,6][1,4]diazepino[7,1-a]indole-10-carboxylic acid]",< 100
21,"Cc1cccc2c1N(CCN1CCCCC1)CCn1c-2c(C2CCCCC2)c2ccc(C(=O)O)cc21 [Example 1-206, 13-cyclohexyl-4-methyl-5-[2-(piperidin-1-yl)ethyl]-6,7-dihydro-5H-benzo[5,6][1,4]diazepino[7,1-a]indole-10-carboxylic acid dihydrochloride]",< 100
22,"COC[C@@H]1CCCN1CCN1CCn2c(c(C3CCCCC3)c3ccc(C(=O)O)cc32)-c2ccccc21 [Example 1-207, 13-cyclohexyl-5-[2-((S)-2-methoxymethylpyrrolidin-1-yl)ethyl]-6,7-dihydro-5H-benzo[5,6][1,4]diazepino[7,1-a]indole-10-carboxylic acid dihydrochloride]",< 100
23,"CC1CCCN1CCN1CCn2c(c(C3CCCCC3)c3ccc(C(=O)O)cc32)-c2ccccc21 (stereo not drawn) [Example 1-208, 13-cyclohexyl-5-[2-(2-methylpyrrolidin-1-yl)ethyl]-6,7-dihydro-5H-benzo[5,6][1,4]diazepino[7,1-a]indole-10-carboxylic acid dihydrochloride]",< 100
24,"CC(C)CN(C)CCN1CCn2c(c(C3CCCCC3)c3ccc(C(=O)O)cc32)-c2ccccc21 [Example 1-209, 13-cyclohexyl-5-[2-(N-isobutyl-N-methylamino)ethyl]-6,7-dihydro-5H-benzo[5,6][1,4]diazepino[7,1-a]indole-10-carboxylic acid dihydrochloride]",< 100
25,"O=C(O)c1ccc2c(C3CCCCC3)c3n(c2c1)CC(=O)N(CC(=O)N1CCOCC1)c1ccccc1-3 [Example 1-210, 13-cyclohexyl-5-[2-(morpholin-4-yl)-2-oxoethyl]-6-oxo-6,7-dihydro-5H-benzo[5,6][1,4]diazepino[7,1-a]indole-10-carboxylic acid]",< 100
26,"O=C(O)c1ccc2c(C3CCCCC3)c3n(c2c1)CCN(CCN1CCCCC1)c1cc(OCc2ccccc2)ccc1-3 [Example 1-211, 3-benzyloxy-13-cyclohexyl-5-[2-(piperidin-1-yl)ethyl]-6,7-dihydro-5H-benzo[5,6][1,4]diazepino[7,1-a]indole-10-carboxylic acid dihydrochloride]",< 100
27,"CC(C)N(C)CCN1CCn2c(c(C3CCCCC3)c3ccc(C(=O)O)cc32)-c2ccccc21 [Example 1-212, 13-cyclohexyl-5-[2-(N-isopropyl-N-methylamino)ethyl]-6,7-dihydro-5H-benzo[5,6][1,4]diazepino[7,1-a]indole-10-carboxylic acid dihydrochloride]",< 100
